{
  "source": "patent US20180312473A1",
  "about": "“PHENAZINE DERIVATIVES AS ANTIMICROBIAL AGENTS” (priority 2015, published 2018)",
  "key": {"[1]": {"system": "M. tuberculosis H37Ra (ATCC 25177)", "test": "Mycobacterium tuberculosis MIC assay", "assay_type": "cell-based", "details": "Mycobacterium tuberculosis", "in_short": "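Culture diluted to OD600 0.01 and exposed to compounds in 0.5% final DMSO, each compound tested in three rows. Growth read as OD600 absorbance. Data from three independent experiments.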"}, "MRSA BAA-1707": {"system": "MRSA BAA-1707", "test": "MIC assay (broth microdilution, CLSI)", "details": "Staphylococcus aureus, read-out: MIC, MRSA BAA-1707"}, "[2]": {"test": "Mouse toxicity evaluation", "assay_type": "in vivo, C57BL/6 mice", "details": "once daily oral gavage in corn oil, 7 days; 202 22.1 mg/kg, 209 4.2 mg/kg", "protocol": "Groups of five C57BL/6 mice (Charles River Laboratories International, Inc.; mice were eight weeks old) were treated once daily with HPs 202 (22.1 mg/kg) and 209 (4.2 mg/kg) for 7 days via oral gavage (0.25 mL of formulated corn oil for 25 gram mouse on average)."}, "MRSA BAA-44": {"system": "MRSA BAA-44", "test": "MIC assay (broth microdilution, CLSI)", "details": "Staphylococcus aureus, read-out: MIC, MRSA BAA-44"}, "[3]": {"system": "MRSA-1 (methicillin-resistant Staphylococcus aureus clinical isolate)", "test": "MIC assay (broth microdilution, CLSI)", "assay_type": "cell-based", "details": "Staphylococcus aureus, MRSA, read-out: MIC, MRSA-1"}, "[4]": {"system": "Staphylococcus epidermidis (ATCC 35984), MRSE", "test": "MIC assay (broth microdilution, CLSI)", "assay_type": "cell-based", "details": "for MIC: Staphylococcus epidermidis"}, "S. epidermidis 12228": {"system": "S. epidermidis 12228", "test": "MIC assay with Tiron or metal(II) cation co-treatment", "assay_type": "cell-based, Staphylococcus epidermidis", "details": "Staphylococcus epidermidis"}, "[5]": {"system": "VRE (E. faecium ATCC 700221) planktonic cells and biofilms", "test": "Calgary Biofilm Device (CBD) assay, MBC/MBEC", "assay_type": "cell-based, Enterococcus faecium", "details": "c lowest concentration tested; for MBC: Enterococcus"}, "E. faecium 700221 (VRE)": {"system": "E. faecium 700221 (VRE)", "test": "MIC assay with Tiron or metal(II) cation co-treatment", "assay_type": "cell-based, Enterococcus faecium"}, "HeLa cells": {"system": "HeLa cells", "test": "in vitro", "assay_type": "cell-based", "details": "human, 24 h"}, "in vitro": {"test": "in vitro", "assay_type": "cell-based", "details": "human"}, "[6]": {"system": "MRSA BAA-1707 planktonic cells and biofilms", "test": "Calgary Biofilm Device (CBD) assay, MBC/MBEC", "details": "Staphylococcus aureus, read-out: MRSA BAA-1707 MBC"}, "MRSA-2": {"system": "MRSA-2", "test": "MIC assay with Tiron or metal(II) cation co-treatment", "assay_type": "cell-based, Staphylococcus aureus", "details": "Staphylococcus aureus"}, "human red blood cells": {"system": "human red blood cells", "test": "Hemolysis assay with red blood cells", "details": "human, 1 h, 200 μM, pH 7.2", "in_short": "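Hemolysis expressed as percent of the Triton X signal with DMSO as zero, using OD405 of supernatant. Compounds from DMSO stocks were incubated with triple-washed human erythrocytes for 1 hour at 37° C. before centrifugation; three independent experiments.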"}, "[7]": {"system": "Enterococcus faecium (ATCC 700221), VRE", "test": "MIC assay (broth microdilution, CLSI)", "assay_type": "cell-based"}, "[8]": {"system": "Staphylococcus epidermidis (ATCC 12228)", "test": "MIC assay (broth microdilution, CLSI)", "assay_type": "cell-based", "details": "Staphylococcus epidermidis, ATCC12228"}, "[9]": {"system": "Staphylococcus aureus and S. epidermidis", "details": "cited from earlier work"}},
  "note": "Where “and” joins values, the source holds several entries; their conditions need not be identical. Equal entries are not always repeated. Where two headings read alike, the source gives them in different places. Marks after values point to notes of the source that are not given here.",
  "data": [
    {"compound": "Oc1c(Br)cc(Br)c2nc3cc(Cl)c(Cl)cc3nc12", "note": "[Compound 16]", "values": [
      {"measurement": "MIC", "setting": "[1]; 168 h, M. tuberculosis H37Ra, 7 days, read-out: Mtb MIC", "value": 6.25, "unit": "µM"},
      {"measurement": "MIC", "setting": "[1]; Table 7, read-out: MIC, M. tuberculosis H37Ra", "value": 6.25, "unit": "µM"},
      {"measurement": "MIC", "setting": "MRSA BAA-1707", "value": 25, "unit": "µM"},
      {"measurement": "adverse side effects (changes in weight, seizure, death)", "setting": "[2]", "value": "no adverse side effects"},
      {"measurement": "MIC", "setting": "MRSA BAA-44", "value": 50, "unit": "µM"},
      {"measurement": "MIC", "setting": "[3]; Table 2A", "value": 12.5, "unit": "µM"},
      {"measurement": "MIC", "setting": "[3]; Table 2B, b lowest concentration tested", "value": 12.5, "unit": "µM"},
      {"measurement": "MIC", "setting": "[4]; Table 2A, read-out: MIC, Staphylococcus epidermidis (ATCC 35984)", "value": "0.2 to 0.39", "unit": "µM"},
      {"measurement": "MIC", "setting": "[4]; Table 2B, read-out: MIC, Staphylococcus epidermidis (ATCC 35984)", "value": 0.3, "unit": "µM"},
      {"measurement": "MIC", "setting": "[4]; Table 7, read-out: MIC, MRSE 35984", "value": "0.3 to 0.59", "unit": "µM"},
      {"measurement": "MIC, MRSE 35984", "setting": "[4]; Table 7", "value": "0.30^a μM"},
      {"measurement": "MIC", "setting": "S. epidermidis 12228; S. epidermidis 12228, without Tiron, read-out: MIC", "value": 0.1, "unit": "µM"},
      {"measurement": "MIC", "setting": "S. epidermidis 12228; S. epidermidis 12228, read-out: MIC with Tiron", "value": 0.1, "unit": "µM"},
      {"measurement": "MBC", "setting": "[5]; Table 5, read-out: VRE MBC", "value": 0.39, "unit": "µM"},
      {"measurement": "MBC", "setting": "[5]; Table 8, read-out: VRE 700221 MBC", "value": 0.39, "unit": "µM"},
      {"measurement": "VRE MBEC", "setting": "[5]; Table 5", "value": "0.39/0.39 μM"},
      {"measurement": "MIC", "setting": "E. faecium 700221 (VRE); VRE 700221, without Tiron, read-out: MIC", "value": 0.39, "unit": "µM"},
      {"measurement": "MIC", "setting": "E. faecium 700221 (VRE); VRE 700221, read-out: MIC with Tiron", "value": 0.39, "unit": "µM"},
      {"measurement": "IC50", "setting": "HeLa cells", "value": "> 100", "unit": "µM"},
      {"measurement": "IC50 at 24 h", "setting": "in vitro", "value": "> 100", "unit": "µM"},
      {"measurement": "MBC", "setting": "[6]", "value": 6.25, "unit": "µM"},
      {"measurement": "MIC", "setting": "MRSA-2; MRSA-2, without Tiron, read-out: MIC", "value": 12.5, "unit": "µM"},
      {"measurement": "MIC", "setting": "MRSA-2; MRSA-2, b lowest concentration tested, read-out: MIC with Tiron", "value": 0.1, "unit": "µM"},
      {"measurement": "% Hemolysis (200 μM)", "setting": "human red blood cells", "value": "≤1", "unit": "%"},
      {"measurement": "MIC", "setting": "[7]; Enterococcus faecium, Table 2A, read-out: MIC, Enterococcus faecium (ATCC 700221)", "value": 0.39, "unit": "µM"},
      {"measurement": "MIC", "setting": "[7]; Enterococcus faecium, Table 2B, b lowest concentration tested, read-out: MIC, Enterococcus faecium (ATCC 700221)", "value": 0.39, "unit": "µM"},
      {"measurement": "MIC", "setting": "[7]; Table 7, b lowest concentration tested, read-out: MIC, VRE 700221", "value": 0.39, "unit": "µM"},
      {"measurement": "MIC", "setting": "[8]; Table 2A, read-out: MIC, Staphylococcus epidermidis (ATCC 12228)", "value": "0.05 to 0.1", "unit": "µM"},
      {"measurement": "MIC", "setting": "[8]; Table 7, b lowest concentration tested, read-out: MIC, S. epidermidis 12228", "value": 0.08, "unit": "µM"}
    ]},
    {"compound": "Oc1cccc2nc3ccccc3nc12", "note": "[1-hydroxyphenazine]", "values": [
      {"measurement": "activity against staphylococcal pathogens", "setting": "[9]; earlier report", "value": "inactive"}
    ]},
    {"compound": "Oc1c(Br)ccc2nc3ccccc3nc12", "note": "[Compound 1, 2-bromo-1-hydroxyphenazine]", "values": [
      {"measurement": "MIC against S. aureus and S. epidermidis", "setting": "[9]; earlier report of the group", "value": "6.25 μM and 1.7 μg/mL"}
    ]}
  ]
}
